# Experimental data: US5607691A, “Compositions and methods for enhanced drug delivery” (priority 1995, dated 1997)
# Counter-ions that a name gives are not always drawn.
# Assay: in vitro
# Type: in vitro ADME, human
# Conditions: human, serum, Table 5; human serum, 37° C.; read-out: Serum Half-life (converted)
# Excerpt: Table 4 lists the serum half-lives for several model compounds and two representative pharmaceutical agent-chemical modifier complexes using an in vitro assay system described in the Experimental section below. Of course, the serum half-lives will vary in vivo depending upon the age and health condition of the patient. Each complex comprises a model compound or a pharmaceutical agent, a spacer group, and a chemical modifier. Many of the model compounds utilize 4-nitrophenyl(ethanol, propanol, or cyclohexanol) or 4-nitrophenylethylamine as the "model" pharmaceutical agent. A more complete listing of serum half-lives may be found in the Experimental section below.
# General procedure for serum hydrolysis of pharmaceutical agent-modifier complexes
# Stock solutions (6 mM) of the pharmaceutical agent-modifier complexes were prepared in ethanol (by vortexing, sonication or warming at 37° C. if necessary). If required for solubility, a drop of dimethylsulfoxide, dimethylformamide or methanol may be added. (Acetonitrile cannot be used because it deactivates the serum enzymes.)
# HPLC separation methods were established for each study by dilution of the above stock solution (6 μl) in acetonitrile (1 ml) to give a 36 μM solution. Samples (10 μl) were injected onto a Nucleosil 5C8 (250×4 mmID) and guard column (11×4 mm ID) and eluted with a mobile phase of approximately 65% HPLC grade water and 35% of a solution of 0.1% trifluoroacetic acid in acetonitrile, the exact proportions being adjusted in each case to give optimum separation and run times.
# Freshly defrosted human serum (3 ml, Sigma) was warmed at 37° C. for five minutes and then 60 μl of the agent-modifier complex stock solution was added with vortexing. […] The aliquots were added to 800 μl of 2% zinc sulfate solution in a 1.5 ml disposable microcentrifuge tube, vortexed immediately and centrifuged at 14,000 RPM for 3 minutes. The supernatants (10 μl) were then injected onto the HPLC and peak areas were used to determine the % remaining. Serum blanks were prepared similarly by addition of serum to the zinc sulfate solution followed by centrifugation, and time=0 samples were also prepared by adding serum to the zinc sulfate solution followed by addition of the complex and separation by centrifugation. The time=0 samples, as well as the original stock solutions, were also used to study the stability of the complex in the absence of enzyme. Half-lives were calculated using the equation
# by plotting time (x) vs. ln % remaining (y) to obtain the slope (m) and the y intercept (b).
row,Structure (SMILES),half-life
1,"CC1OC(OC2C(O)CC(OC3C(O)CC(OC4CCC5(C)C(CCC6C5CC(O)C5(C)C(C7=CC(=O)OC7)CCC65O)C4)OC3C)OC2C)CC(O)C1OC(=O)OCC[N+](C)(C)C (stereo not shown) [digoxin-4'""-(choline chloride) carbonate ester]",0.0219 h
2,"CC(CCCC(=O)OC1C(O)CC(OC2C(O)CC(OC3C(O)CC(OC4CCC5(C)C(CCC6C5CC(O)C5(C)C(C7=CC(=O)OC7)CCC65O)C4)OC3C)OC2C)OC1C)OC(=O)CCC[N+](C)(C)C (stereo not shown) [digoxin-4'""-[5-(4-trimethylaminobutyroyloxy)-hexanoate] bromide salt]",14 h
3,"CC1OC(OC2C(O)CC(OC3C(O)CC(OC4CCC5(C)C(CCC6C5CC(O)C5(C)C(C7=CC(=O)OC7)CCC65O)C4)OC3C)OC2C)CC(O)C1OC(=O)C1CCC[N+]1(C)C (stereo not shown) [digoxin-4'""-stachydrine ester, chloride salt]",0.085 h
4,"CC1OC(OC2CCC3(C)C(CCC4C3CC(OC(=O)CCC[N+](C)(C)C)C3(C)C(C5=CC(=O)OC5)CCC43O)C2)CC(O)C1OC1CC(O)C(OC2CC3OC(=O)OC3C(C)O2)C(C)O1 (stereo not shown) [digoxin-12-(4-trimethylaminobutyrate)-3'"",4'""-cyclic carbonate, bromide salt]",96 h
5,"CC1OC(OC2CCC3(C)C(CCC4C3CC(OC(=O)OC[N+](C)(C)C)C3(C)C(C5=CC(=O)OC5)CCC43O)C2)CC(O)C1OC1CC(O)C(OC2CC3OC(=O)OC3C(C)O2)C(C)O1 (stereo not shown) [digoxin-12-(N,N,N-trimethylaminomethyl)-carbonate 3""',4'""-cyclic carbonate, chloride salt]",0.7 h
6,"CC1OC(OC2CCC3(C)C(CCC4C3CC(OC(=O)OCC[N+](C)(C)C)C3(C)C(C5=CC(=O)OC5)CCC43O)C2)CC(O)C1OC1CC(O)C(OC2CC3OC(=O)OC3C(C)O2)C(C)O1 (stereo not shown) [digoxin-12-(choline carbonate)-3'"",4'""-cyclic carbonate, bromide salt]",29 h
7,"C[C@H]1O[C@@H](O[C@H]2[C@@H](O)C[C@H](O[C@H]3[C@@H](O)C[C@H](O[C@H]4CC[C@@]5(C)[C@H](CC[C@@H]6[C@@H]5C[C@@H](OC(=O)OCCCCCCOC(=O)C[N+](C)(C)C)[C@]5(C)[C@@H](C7=CC(=O)OC7)CC[C@]65O)C4)O[C@@H]3C)O[C@@H]2C)C[C@@H]2OC(=O)O[C@@H]21 [digoxin-12-[1-(6-betainoyloxyhexyl)]carbonate-3""',4""'-cyclic carbonate, chloride salt]",470 h
8,"CC1OC(OC2CCC3(C)C(CCC4C3CC(OC(=O)CCCN(C)C)C3(C)C(C5=CC(=O)OC5)CCC43O)C2)CC(O)C1OC1CC(O)C(OC2CC3OC(=O)OC3C(C)O2)C(C)O1 (stereo not shown) [digoxin-12-[4-(N,N-dimethylamino)butyrate]-3""',4'""-cyclic carbonate, hydrochloride salt]",24 h
9,"CC(CCCC(=O)OC1CC2C(CCC3CC(OC4CC(O)C(OC5CC(O)C(OC6CC7OC(=O)OC7C(C)O6)C(C)O5)C(C)O4)CCC32C)C2(O)CCC(C3=CC(=O)OC3)C12C)OC(=O)CCC[N+](C)(C)C (stereo not shown) [digoxin-12-[5-(4-trimethylaminobutyroyloxy)-hexanoate]-3'"",4'""-cyclic carbonate]",504 h
10,"CC1OC(OC2CCC3(C)C(CCC4C3CC(OC(=O)CCCCC[N+](C)(C)C)C3(C)C(C5=CC(=O)OC5)CCC43O)C2)CC(O)C1OC1CC(O)C(OC2CC3OC(=O)OC3C(C)O2)C(C)O1 (stereo not shown) [digoxin-12-[6-(N,N,N-trimethylamino)hexanoate]-3'""-4'""-cyclic carbonate, bromide salt]",336 h
11,"CC1OC(OC2CCC3(C)C(CCC4C3CC(OC(=O)CCCCCN(C)C)C3(C)C(C5=CC(=O)OC5)CCC43O)C2)CC(O)C1OC1CC(O)C(OC2CC3OC(=O)OC3C(C)O2)C(C)O1 (stereo not shown) [digoxin-12-[6-(N,N-dimethylamino)hexanoate]-3'"",4'""-cyclic carbonate]",605 h
12,"C[C@H]1O[C@@H](O[C@H]2[C@@H](O)C[C@H](O[C@H]3[C@@H](O)C[C@H](O[C@H]4CC[C@@]5(C)[C@H](CC[C@@H]6[C@@H]5C[C@@H](OC(=O)OC[N+](C)(C)CCCCCC(=O)O)[C@]5(C)[C@@H](C7=CC(=O)OC7)CC[C@]65O)C4)O[C@@H]3C)O[C@@H]2C)C[C@@H]2OC(=O)O[C@@H]21 [digoxin-12-[N-(5-carboxypentyl)-N,N-dimethylaminomethyl carbonate]-3""',4""'-cyclic carbonate, bromide salt]",0.8 h
13,"C[C@H]1O[C@@H](O[C@H]2[C@@H](O)C[C@H](O[C@H]3[C@@H](O)C[C@H](O[C@H]4CC[C@@]5(C)[C@H](CC[C@@H]6[C@@H]5C[C@@H](OC(=O)c5cccnc5)[C@]5(C)[C@@H](C7=CC(=O)OC7)CC[C@]65O)C4)O[C@@H]3C)O[C@@H]2C)C[C@@H]2OC(=O)O[C@@H]21 [digoxin-12-nicotinate ester-3""',4""'-cyclic carbonate]",331 h
14,"C[C@H]1O[C@@H](O[C@H]2[C@@H](O)C[C@H](O[C@H]3[C@@H](O)C[C@H](O[C@H]4CC[C@@]5(C)[C@H](CC[C@@H]6[C@@H]5C[C@@H](OC(=O)[C@@H]5CCC[N+]5(C)C)[C@]5(C)[C@@H](C7=CC(=O)OC7)CC[C@]65O)C4)O[C@@H]3C)O[C@@H]2C)C[C@@H]2OC(=O)O[C@@H]21 [digoxin-12-stachydrine ester-3""',4""'-cyclic carbonate, chloride salt]",4.9 h
15,"C[C@]12CCC(=O)C(OC(=O)OCC[N+](C)(C)C)=C1CC[C@@H]1[C@@H]2CC[C@]2(C)C(=O)CC[C@@H]12 [formestane-4-choline carbonate, bromide salt]",0.433 h
16,"CCCC[N+](C)(C)CCOC(=O)Cc1c(C)n(C(=O)c2ccc(Cl)cc2)c2ccc(OC)cc12 [indomethacin 2-(N-(1-butyl)-N,N-dimethylaminoethyl ester, bromide salt]",0.0106 h
17,"COc1ccc2c(c1)c(CC(=O)OCC[N+](C)(C)CCO)c(C)n2C(=O)c1ccc(Cl)cc1 [indomethacin 2-(N-(2-hydroxyethyl)-N,N-dimethyl) aminoethyl ester, bromide salt]",0.0163 h
18,"COc1ccc2c(c1)c(CC(=O)OCCNC(=O)CCCCC[N+](C)(C)C)c(C)n2C(=O)c1ccc(Cl)cc1 [indomethacin 2-[N-(6'-N',N',N'-trimethylamino)-hexanamido]ethyl ester, iodide salt]",22.6 h
19,"COc1ccc2c(c1)c(CC(=O)OCCNC(=O)CCCCCN(C)C)c(C)n2C(=O)c1ccc(Cl)cc1 [indomethacin 2-[N-(6'-N',N'-dimethylamino)hexanamido]ethyl ester]",13.6 h
20,"COc1ccc2c(c1)c(CC(=O)OCCN(C)C(=O)CCCCC[N+](C)(C)C)c(C)n2C(=O)c1ccc(Cl)cc1 [indomethacin 2-[N-methyl-N-(6'-N',N',N'-trimethyl-amino)hexanamido]ethyl ester, iodide salt]",3.4 h
21,"COc1ccc2c(c1)c(CC(=O)OCCN(C)C(=O)CCCCCN(C)C)c(C)n2C(=O)c1ccc(Cl)cc1 [indomethacin 2-[N-methyl-N-(6'-N',N'-dimethylamino)hexanamido]ethyl ester]",0.225 h
22,"COc1ccc2c(c1)c(CC(=O)OCOC(=O)CCCCCNC(=O)C[C@H](C[N+](C)(C)C)OC(C)=O)c(C)n2C(=O)c1ccc(Cl)cc1 [indomethacin 6-(O-acetyl-L-carnitinamido)hexanoyloxymethyl ester, chloride salt]",0.5 h
23,"CCN(CC)C(=O)COC(=O)Cc1c(C)n(C(=O)c2ccc(Cl)cc2)c2ccc(OC)cc12 [indomethacin (N,N-diethylglycolamide) ester]",0.38 h
24,"CCOC(=O)Cc1c(C)n(C(=O)c2ccc(Cl)cc2)c2ccc(OC)cc12 [indomethacin ethyl ester, reference compound]",> 96 h
25,COc1ccc2c(c1)c(CC(=O)COC(=O)OCC[N+](C)(C)C)c(C)n2C(=O)c1ccc(Cl)cc1 [indomethacin hydroxymethyl ketone choline iodide carbonate],0.0181 h
26,COc1ccc2c(c1)c(CC(=O)CO)c(C)n2C(=O)c1ccc(Cl)cc1 [indomethacin hydroxymethyl ketone],15 h
27,"COC(=O)Cc1c(C)n(C(=O)c2ccc(Cl)cc2)c2ccc(OC)cc12 [indomethacin methyl ester, reference compound]",144 h
28,CC(=O)O[C@H](CC(=O)OC1N=C(c2ccccc2Cl)c2cc(Cl)ccc2NC1=O)C[N+](C)(C)C (stereo partly shown) [lorazepam-3-(O-acetylcarnitine) ester chloride salt],5.2 h
29,"C[N+](C)(C)CCOC(=O)OC1N=C(c2ccccc2Cl)c2cc(Cl)ccc2NC1=O (stereo not shown) [lorazepam-3-choline carbonate, chloride salt]",2.2 h
30,"COc1ccc2c(c1)c(CCNC(C)=O)cn2C(=O)OCC[N+](C)(C)C [melatonin-1-choline carbamate, bromide salt]",15 h

# Same assay, conditions: human, serum, untitled table of digoxin derivatives (position/substituent); assay not given; read-out: Half Life (converted)
row,Structure (SMILES),half-life
1,"CC1OC(OC2CCC3(C)C(CCC4C3CC(OC(=O)CCC[N+](C)(C)C)C3(C)C(C5=CC(=O)OC5)CCC43O)C2)CC(O)C1OC1CC(O)C(OC2CC3OC(=O)OC3C(C)O2)C(C)O1 (stereo not shown) [digoxin-12-(4-trimethylaminobutyrate)-3'"",4'""-cyclic carbonate, bromide salt]",96 h
